Laboratory results reported in ChEMBL document CHEMBL1909046, “DrugMatrix in vitro pharmacology data”.

How the values were obtained:
Cytochrome P450 3A4 = Cytochrome P450 3A4 (Homo sapiens, UniProt P08684); conditions: bti-tn-5b1-4
Histamine H2 receptor = Histamine H2 receptor (Homo sapiens, UniProt P25021); assay type: cell membranes, CHO-K1, Membrane; conditions: for Ki: read-out: Ki
[1] = target: T1, Receptor-type tyrosine-protein phosphatase C (Homo sapiens, UniProt P08575); parameters: species or system Escherichia coli;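 further: inhibition of CD45 enzyme activity measured using DiFMUP as substrate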
T1 sequence (P08575 whole entry): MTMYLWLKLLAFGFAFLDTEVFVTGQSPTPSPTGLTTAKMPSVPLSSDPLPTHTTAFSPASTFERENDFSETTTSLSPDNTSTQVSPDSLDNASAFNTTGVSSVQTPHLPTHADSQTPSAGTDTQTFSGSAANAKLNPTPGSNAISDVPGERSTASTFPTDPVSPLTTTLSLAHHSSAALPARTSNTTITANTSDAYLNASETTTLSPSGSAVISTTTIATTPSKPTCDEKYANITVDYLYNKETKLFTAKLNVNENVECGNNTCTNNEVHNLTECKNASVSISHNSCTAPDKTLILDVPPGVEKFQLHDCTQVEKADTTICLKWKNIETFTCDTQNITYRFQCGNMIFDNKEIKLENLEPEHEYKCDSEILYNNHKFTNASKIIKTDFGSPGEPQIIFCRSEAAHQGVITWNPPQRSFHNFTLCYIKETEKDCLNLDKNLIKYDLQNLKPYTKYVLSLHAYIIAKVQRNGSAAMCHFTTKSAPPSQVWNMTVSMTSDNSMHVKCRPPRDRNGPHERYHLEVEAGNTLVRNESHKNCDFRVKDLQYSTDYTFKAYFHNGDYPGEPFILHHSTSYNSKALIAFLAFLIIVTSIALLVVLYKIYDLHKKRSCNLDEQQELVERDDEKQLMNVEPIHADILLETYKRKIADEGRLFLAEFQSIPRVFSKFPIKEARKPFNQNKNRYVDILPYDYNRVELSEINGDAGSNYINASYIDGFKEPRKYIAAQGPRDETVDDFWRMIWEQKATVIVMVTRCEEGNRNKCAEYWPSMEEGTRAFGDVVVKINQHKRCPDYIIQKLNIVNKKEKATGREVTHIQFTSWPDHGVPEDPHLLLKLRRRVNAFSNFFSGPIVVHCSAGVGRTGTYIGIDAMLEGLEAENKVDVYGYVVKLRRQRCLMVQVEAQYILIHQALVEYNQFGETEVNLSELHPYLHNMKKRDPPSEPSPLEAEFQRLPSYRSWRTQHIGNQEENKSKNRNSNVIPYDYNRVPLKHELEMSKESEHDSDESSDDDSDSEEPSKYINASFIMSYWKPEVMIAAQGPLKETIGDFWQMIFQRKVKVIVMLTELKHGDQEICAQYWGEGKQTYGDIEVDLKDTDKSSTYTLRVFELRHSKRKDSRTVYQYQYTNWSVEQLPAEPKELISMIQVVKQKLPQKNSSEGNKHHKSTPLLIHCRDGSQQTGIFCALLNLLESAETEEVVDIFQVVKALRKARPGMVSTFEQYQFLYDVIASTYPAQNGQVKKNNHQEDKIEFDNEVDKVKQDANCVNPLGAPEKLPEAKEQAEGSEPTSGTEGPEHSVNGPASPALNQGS

[2] = target: T2, Muscarinic acetylcholine receptor M4 (Homo sapiens, UniProt P08173); assay type: cell membranes, CHO-K1, Membrane
T2 sequence (P08173 whole entry): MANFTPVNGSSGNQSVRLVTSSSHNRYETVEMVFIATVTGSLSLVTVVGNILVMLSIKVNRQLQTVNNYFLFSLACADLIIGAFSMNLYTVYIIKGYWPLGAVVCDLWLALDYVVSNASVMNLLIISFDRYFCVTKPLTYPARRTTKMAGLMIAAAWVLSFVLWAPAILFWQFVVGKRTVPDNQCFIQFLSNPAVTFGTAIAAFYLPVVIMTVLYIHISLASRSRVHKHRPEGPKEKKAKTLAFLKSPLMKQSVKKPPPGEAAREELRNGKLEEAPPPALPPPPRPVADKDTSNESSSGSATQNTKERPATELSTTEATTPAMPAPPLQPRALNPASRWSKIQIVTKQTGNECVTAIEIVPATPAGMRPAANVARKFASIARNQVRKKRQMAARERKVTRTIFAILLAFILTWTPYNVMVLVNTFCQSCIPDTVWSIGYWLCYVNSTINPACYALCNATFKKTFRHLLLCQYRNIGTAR

[3] = target: T3, Muscarinic acetylcholine receptor M2 (Homo sapiens, UniProt P08172); assay type: cell membranes, CHO-K1, Membrane; conditions: cho-k1
T3 sequence (P08172 whole entry): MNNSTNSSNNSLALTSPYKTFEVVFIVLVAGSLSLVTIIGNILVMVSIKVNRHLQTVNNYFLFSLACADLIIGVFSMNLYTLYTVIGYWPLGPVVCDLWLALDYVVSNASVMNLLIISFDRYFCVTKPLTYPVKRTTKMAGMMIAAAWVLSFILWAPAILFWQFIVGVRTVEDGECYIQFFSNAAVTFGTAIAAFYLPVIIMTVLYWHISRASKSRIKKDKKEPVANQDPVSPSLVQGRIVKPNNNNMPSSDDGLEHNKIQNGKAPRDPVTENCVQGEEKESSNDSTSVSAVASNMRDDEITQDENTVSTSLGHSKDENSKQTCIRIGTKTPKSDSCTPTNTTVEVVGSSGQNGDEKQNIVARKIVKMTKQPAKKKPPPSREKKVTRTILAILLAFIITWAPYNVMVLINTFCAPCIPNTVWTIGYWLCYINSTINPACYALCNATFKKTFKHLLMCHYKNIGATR

[4] = target: T4, C-X-C chemokine receptor type 1 (Homo sapiens, UniProt P25024)
T4 sequence (P25024 whole entry): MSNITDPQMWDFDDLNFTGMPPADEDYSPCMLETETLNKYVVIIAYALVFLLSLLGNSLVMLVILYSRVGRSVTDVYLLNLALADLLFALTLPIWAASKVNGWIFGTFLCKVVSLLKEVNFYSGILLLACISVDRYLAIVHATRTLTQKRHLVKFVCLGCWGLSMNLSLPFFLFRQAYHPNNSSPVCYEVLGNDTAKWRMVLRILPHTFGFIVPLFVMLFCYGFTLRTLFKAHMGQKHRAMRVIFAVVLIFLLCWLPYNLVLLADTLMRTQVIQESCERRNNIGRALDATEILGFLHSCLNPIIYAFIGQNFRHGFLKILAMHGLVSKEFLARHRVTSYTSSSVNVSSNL
Further: in other assays of this panel Not Active means under 50% inhibition at 10 µM.

Chain of Cytochrome P450 3A4 (P08684 whole entry): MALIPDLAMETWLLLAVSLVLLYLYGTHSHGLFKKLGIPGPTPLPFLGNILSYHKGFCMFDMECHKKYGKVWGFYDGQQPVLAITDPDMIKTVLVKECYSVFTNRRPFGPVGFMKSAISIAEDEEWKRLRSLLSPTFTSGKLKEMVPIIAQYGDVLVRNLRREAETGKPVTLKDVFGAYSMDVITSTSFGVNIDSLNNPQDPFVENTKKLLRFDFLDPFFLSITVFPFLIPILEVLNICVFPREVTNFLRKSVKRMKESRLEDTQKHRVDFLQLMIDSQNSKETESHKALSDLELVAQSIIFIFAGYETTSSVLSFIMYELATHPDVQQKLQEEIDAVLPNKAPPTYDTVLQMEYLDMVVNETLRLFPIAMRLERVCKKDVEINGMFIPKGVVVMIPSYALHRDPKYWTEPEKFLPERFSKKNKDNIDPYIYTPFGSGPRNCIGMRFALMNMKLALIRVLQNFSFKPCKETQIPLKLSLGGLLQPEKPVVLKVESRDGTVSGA
Chain of Histamine H2 receptor (P25021 whole entry): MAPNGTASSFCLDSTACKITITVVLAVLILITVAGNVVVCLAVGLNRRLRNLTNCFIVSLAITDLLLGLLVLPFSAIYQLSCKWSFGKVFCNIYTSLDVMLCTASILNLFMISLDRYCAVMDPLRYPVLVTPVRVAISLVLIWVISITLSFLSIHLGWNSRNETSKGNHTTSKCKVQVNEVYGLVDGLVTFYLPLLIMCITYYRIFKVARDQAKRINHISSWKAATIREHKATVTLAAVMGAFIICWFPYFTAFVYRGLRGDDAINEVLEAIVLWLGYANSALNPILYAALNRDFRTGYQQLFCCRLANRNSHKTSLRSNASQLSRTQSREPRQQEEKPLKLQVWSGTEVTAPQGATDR

Compound	IC50 (Cytochrome P450 3A4)	Ki (Cytochrome P450 3A4)	IC50 (Histamine H2 receptor; cho-k1)	IC50 [1]	IC50 ([2]; cho-k1)	IC50 [3]	IC50 [4]	IC50 (Histamine H2 receptor; read-out: IC50) [µM]	Ki (Histamine H2 receptor) [µM]	IC50 ([2]; read-out: IC50) [µM]	Ki ([2]; read-out: Ki) [µM]
N[C@H](CSC(=S)NCc1ccccc1)C(=O)O	Not Active	Not Active	Not Active	Not Active	Not Active	Not Active	Not Active				
Cc1cc(C)nc(NS(=O)(=O)c2ccc(N)cc2)n1 [SULFAMETHAZINE]	Not Active	Not Active	Not Active	Not Active	Not Active	Not Active	Not Active				
Cc1cccc(Nc2ccncc2S(=O)(=O)NC(=O)NC(C)C)c1 [TORSEMIDE]	Not Active	Not Active	Not Active	Not Active	Not Active	Not Active	Not Active				
O=C1CCC(N2C(=O)c3ccccc3C2=O)C(=O)N1 (stereo unspecified) [THALIDOMIDE]	Not Active	Not Active	Not Active	Not Active	Not Active	Not Active	Not Active				
CC(C)CC(N(C)C)C1(c2ccc(Cl)cc2)CCC1 (stereo unspecified) [SIBUTRAMINE]	Not Active	Not Active	Not Active	Not Active	Not Active	Not Active	Not Active				
[H]/N=C(/N)N[C@H]1[C@H](O)[C@@H](O)[C@H](O[C@@H]2O[C@@H](C)[C@](O)(C=O)[C@H]2O[C@@H]2O[C@@H](CO)[C@H](O)[C@@H](O)[C@@H]2NC)[C@@H](N/C(N)=N\[H])[C@@H]1O [STREPTOMYCIN]	Not Active	Not Active	Not Active	Not Active	Not Active	Not Active	Not Active				
CC(C)C[C@H](NC(=O)[C@@H](O)[C@H](N)Cc1ccccc1)C(=O)O [UBENIMEX]	Not Active	Not Active	Not Active	Not Active	Not Active	Not Active	Not Active				
CC(C)NCC(O)COc1cccc2ccccc12 (stereo unspecified) [PROPRANOLOL]	Not Active	Not Active	Not Active	Not Active	Not Active	Not Active	Not Active				
Cc1onc(-c2ccccc2)c1-c1ccc(S(N)(=O)=O)cc1 [VALDECOXIB]	Not Active	Not Active	Not Active	Not Active	Not Active	Not Active	Not Active				
COCCOC(=O)C1=C(C)NC(C)=C(C(=O)OC(C)C)C1c1cccc([N+](=O)[O-])c1 (stereo unspecified) [NIMODIPINE]			Not Active	Not Active	Not Active	Not Active	Not Active				
CC(=O)N1CCN(c2ccc(OCC3COC(Cn4ccnc4)(c4ccc(Cl)cc4Cl)O3)cc2)CC1 (stereo unspecified) [KETOCONAZOLE]				Not Active	Not Active		Not Active	21.9	21.5		
C=CCN1CC[C@]23c4c5ccc(O)c4O[C@H]2C(=O)CC[C@@]3(O)[C@H]1C5 [NALOXONE]			Not Active	Not Active	Not Active	Not Active	Not Active				
Clc1ccc2c(c1)C(N1CCNCC1)=Nc1ccccc1O2 [AMOXAPINE]	Not Active	Not Active	Not Active	Not Active			Not Active				
CC(C)c1nc(CN(C)C(=O)N[C@H](C(=O)N[C@@H](Cc2ccccc2)C[C@H](O)[C@H](Cc2ccccc2)NC(=O)OCc2cncs2)C(C)C)cs1 [RITONAVIR]			Not Active	Not Active	Not Active	Not Active	Not Active				
CN1CCC(=C2c3ccccc3C=Cc3ccccc32)CC1 [CYPROHEPTADINE]	Not Active	Not Active		Not Active			Not Active	0.198	0.195	0.016	0.00219
COc1cc2c(c(OC)c1OC)-c1ccc(OC)c(=O)cc1[C@@H](NC(C)=O)CC2 [COLCHICINE]			Not Active	Not Active	Not Active	Not Active	Not Active				
